Structures can show the parent of a compound that is named as a salt. Where two headings read alike, the source gives them in different places.
Experiments:
[1] = Cytotoxicity assay (CCK-8), HEK293T; assay type: cell-based; settings: human, HEK293T cells
Procedure: Cytotoxicity of EDT and tiamulin was studied against human hepatocellular carcinoma cells (HepG2) and human embryonic kidney 293T (HEK293T) cells following a protocol as published in our earlier reports[41],[42]. Cells were counted and inoculated into 96-well plates with approximately10^5 cells density for incubating 24 h at 37 °C. […] The same procedure was repeated three times. The percentages of cell viability were calculated by the formula: Cell viability (%) = [Asample ‒ Anegative]/[Apositve ‒ Anegative] × 100%.

female Wistar rats = test: Acute oral toxicity test (OECD423); assay type: in vivo; settings: for Absolute organ weight, Heart / Absolute organ weight, Kidneys / Absolute organ weight, Liver / Absolute organ weight, Lungs / Absolute organ weight, Ovaries / Absolute organ weight, Spleen / Absolute organ weight, Uterus: 2000 mg/kg oral single dose; for Relative organ weight, Kidneys: organ/b.w. × 100
Procedure: Adult specific pathogen free (SPF) female Wistar rats (4–6 weeks old) were purchased from Lanzhou Veterinary Research Institute, Chinese Academy of Agricultural Sciences. Animals were kept in clean stainless steel cages (3 rats per cage), free access to food and water and maintained under the 23 °C conditions with a constant 12 h light–dark cycle. Animals were acclimatized for at least 7 days before the experiment. […] The animal study was carried out in compliance with the ARRIVE guidelines.
Acute toxicity tests of EDT were performed according to OECD423 bulletin[23]. This method can measure drug roughly LD50 with fewer experimental animals. […] Six animals were randomly separated into one treatment group (n = 3) and control group (n = 3). Rats in treatment group were orally administered with a single dose of 2000 mg/kg of EDT dissolved in vehicle (corn oil: DMSO = 4:1) in a volume of 10 mL/kg body weight (b.w.) by gavage. Animals in the control group only received 10 mL/kg vehicle. […] After first round treatment, observations were focused on mortality, behavioural symptoms and changes in skin, eyes and fur. Individual body weight was recorded at the starting of protocol and at the end of protocol. […] On the 14th day, all the surviving animals were euthanized with ketamine hydrochloride 70 mg/kg (i.p.) and their hearts, livers, spleens, lungs, kidneys, uterus and ovaries were individually observed for overt pathology and removed for relative weight calculation (organ/b.w. × 100).

[2] = test system: Salmonella Typhimurium TA97a; test: Ames test, TA97a
Procedure: (§1) Before the test, Salmonella Typhimurium (S. Typhimurium) TA97a, TA98, TA100, TA102, TA1535 and Escherichia coli WP2uvrA pKM101 (pKM101) were first checked for their genetic integrity, including biotin dependence, rfa marker (crystal violet), biotin, histidine dependence and presence of the plasmid pKM101 (ampicillin resistance) or pAQ1 (tetracycline resistance). […] The maximum concentration of EDT was also screened using a preliminary experiment.
(§2) DMSO (0.1 mL) was directly incorporated into 1.9 mL melted top agar as the vehicle control. […] Each strain (0.1 mL, 6–7 log10 CFU/mL) was added into 2 mL of top agar in which comprised 0.5 mL S9 (10%), serial concentrations of EDT (2000, 400, 80, 16 and 3.2 μg/plate), DMSO or control chemicals for testing with the S9. For testing without S9, 0.5 mL phosphate buffer saline (PBS, pH 7.4) replaced the S9 mix. Then, the obtained top agar was melted, poured onto the surface of […] and swirled to distribute the top agar to all surfaces of medium, followed by incubation at 37 °C for 48 h. The resultant colonies were counted manually as the number of revertant colonies per plate. The experiments were performed in triplicate and the results were expressed as the average ± SD.

[3] = test system: Salmonella Typhimurium TA98; test: Ames test, TA98
Procedure: as §1, §2

[4] = test system: Salmonella Typhimurium TA102; test: Ames test, TA102
Procedure: as §1, §2

[5] = test system: Salmonella Typhimurium TA1535
Procedure: as §1, §2

[6] = test system: S. Typhimurium TA97a, TA98, TA100, TA102, TA1535 and Escherichia coli WP2uvrA pKM101; test: Ames test, all tested strains (overall result and preliminary dose finding); assay type: cell-based, Salmonella Typhimurium; Escherichia coli
Procedure: as §1, §2

CYP3A4 = settings: cited from earlier work

In the case of `C=CC1(C)CC(OC(=O)CSc2nc(C)c(C(=O)OCC)c(C)n2)C2(C)C(C)CCC3(CCC(=O)C32)C(C)C1O` (centres unmarked) [EDT, 14-O-[(5-ethoxycarbonyl-4,6-dimethylpyrimidine-2-yl)thioacetyl] mutilin], the CC50 at 6 h ([1]; 200 μM converted to μg/mL) is reported as > 115 µg/mL, the CC50 at 6 h ([1]; deduced from Fig. 5) is reported as > 200 µM and the LD50 (female Wistar rats; female Wistar rats, single oral dose, OECD Guidelines 423) is reported as “more than 2000 mg/kg body weight”. For the same molecule, the “Absolute organ weight, Heart” value (female Wistar rats; first round treatment, day 14) was 0.71 ± 0.06 g, the “Absolute organ weight, Kidneys” value (female Wistar rats; first round treatment, day 14) was 1.11 ± 0.01 g and the “Absolute organ weight, Liver” value (female Wistar rats; first round treatment, day 14) was 9.66 ± 0.17 g. For the same molecule, the “Absolute organ weight, Lungs” value (female Wistar rats; first round treatment, day 14) was 1.38 ± 0.03 g, the “Absolute organ weight, Ovaries” value (female Wistar rats; first round treatment, day 14) was 0.06 ± 0.00 g and the “Absolute organ weight, Spleen” value (female Wistar rats; first round treatment, day 14) was 0.70 ± 0.03 g. The “Absolute organ weight, Uterus” value (female Wistar rats; first round treatment, day 14) was 0.45 ± 0.02 g, the “Relative organ weight, Kidneys” value (female Wistar rats; first round treatment) was 0.52 ± 0.01% and the “Relative organ weight, Ovaries” value (female Wistar rats; rat, in vivo) was 0.03 ± 0.00%. For the same molecule, the “Relative organ weight, Spleen” value (female Wistar rats; rat, in vivo) was 0.33 ± 0.01%, the mortality (female Wistar rats; rat, in vivo, po, 2000 mg/kg) was “no mortality” and the “Absolute organ weight, Heart” value (female Wistar rats; second round treatment, day 14) was 0.75 ± 0.03 g. The “Absolute organ weight, Kidneys” value (female Wistar rats; second round treatment, day 14) was 1.11 ± 0.03 g, the “Absolute organ weight, Liver” value (female Wistar rats; second round treatment, day 14) was 9.69 ± 0.06 g and the “Absolute organ weight, Lungs” value (female Wistar rats; second round treatment, day 14) was 1.40 ± 0.05 g. The “Absolute organ weight, Ovaries” value (female Wistar rats; second round treatment, day 14) was 0.06 ± 0.00 g, the “Absolute organ weight, Spleen” value (female Wistar rats; second round treatment, day 14) was 0.71 ± 0.03 g and the “Absolute organ weight, Uterus” value (female Wistar rats; second round treatment, day 14) was 0.43 ± 0.03 g. For the same molecule, the “Relative organ weight, Kidneys” value (female Wistar rats; second round treatment) was 0.52 ± 0.01%, the “body weight compared to the control group” value (female Wistar rats; single oral 2000 mg/kg, 14 days) was “did not produce alterations in body weight” and the macroscopic necropsy examination (female Wistar rats; single oral 2000 mg/kg, day 14) was “no gross pathological lesions”. The “number of revertant colonies per plate” value ([2]; 3.2 μg/plate, +S9) was 57.67 ± 4.33, the “number of revertant colonies per plate” value ([2]; 3.2 μg/plate, −S9) was 52.00 ± 3.00 and the “number of revertant colonies per plate” value ([2]; 16 μg/plate, +S9) was 46.00 ± 4.00. The “number of revertant colonies per plate” value ([2]; 16 μg/plate, −S9) was 44.33 ± 5.67, the “number of revertant colonies per plate” value ([2]; 80 μg/plate, +S9) was 50.33 ± 3.67 and the “number of revertant colonies per plate” value ([2]; 80 μg/plate, −S9) was 53.33 ± 5.67. The “number of revertant colonies per plate” value ([2]; 400 μg/plate, +S9) was 54.33 ± 4.67, the “number of revertant colonies per plate” value ([2]; 400 μg/plate, −S9) was 56.00 ± 3.00 and the “number of revertant colonies per plate” value ([2]; 2000 μg/plate, +S9) was 44.00 ± 5.00. For the same molecule, the “number of revertant colonies per plate” value ([2]; 2000 μg/plate, −S9) was 52.00 ± 6.00, the “number of revertant colonies per plate” value ([3]; TA98, 3.2 μg/plate, +S9) was 22.00 ± 2.00 and the “number of revertant colonies per plate” value ([3]; TA98, 3.2 μg/plate, −S9) was 21.67 ± 1.67. For the same molecule, the “number of revertant colonies per plate” value ([3]; TA98, 16 μg/plate, +S9) was 24.00 ± 4.00, the “number of revertant colonies per plate” value ([3]; TA98, 16 μg/plate, −S9) was 23.33 ± 2.67 and the “number of revertant colonies per plate” value ([3]; TA98, 80 μg/plate, +S9) was 19.00 ± 3.00. For the same molecule, the “number of revertant colonies per plate” value ([3]; TA98, 80 μg/plate, −S9) was 23.33 ± 2.67, the “number of revertant colonies per plate” value ([3]; TA98, 400 μg/plate, +S9) was 25.00 ± 4.00 and the “number of revertant colonies per plate” value ([3]; TA98, 400 μg/plate, −S9) was 26.67 ± 3.33. The “number of revertant colonies per plate” value ([3]; TA98, 2000 μg/plate, +S9) was 29.67 ± 2.33, the “number of revertant colonies per plate” value ([3]; TA98, 2000 μg/plate, −S9) was 32.33 ± 3.67 and the “number of revertant colonies per plate” value ([4]; TA102, 3.2 μg/plate, +S9) was 214.33 ± 14.67. For the same molecule, the “number of revertant colonies per plate” value ([4]; TA102, 3.2 μg/plate, −S9) was 208.00 ± 15.00, the “number of revertant colonies per plate” value ([4]; TA102, 16 μg/plate, +S9) was 218.00 ± 9.00 and the “number of revertant colonies per plate” value ([4]; TA102, 16 μg/plate, −S9) was 205.00 ± 11.00. The “number of revertant colonies per plate” value ([4]; TA102, 80 μg/plate, +S9) was 223.67 ± 17.33, the “number of revertant colonies per plate” value ([4]; TA102, 80 μg/plate, −S9) was 209.33 ± 13.67 and the “number of revertant colonies per plate” value ([4]; TA102, 400 μg/plate, +S9) was 219.67 ± 18.33. The “number of revertant colonies per plate” value ([4]; TA102, 400 μg/plate, −S9) was 211.00 ± 14.00, the “number of revertant colonies per plate” value ([4]; TA102, 2000 μg/plate, +S9) was 236.33 ± 19.67 and the “number of revertant colonies per plate” value ([4]; TA102, 2000 μg/plate, −S9) was 228.00 ± 16.00. For the same molecule, the “number of revertant colonies per plate” value ([5]; TA1535, 3.2 μg/plate, +S9) was 21.00 ± 4.00, the “number of revertant colonies per plate” value ([5]; TA1535, 3.2 μg/plate, −S9) was 19.67 ± 1.33 and the “number of revertant colonies per plate” value ([5]; TA1535, 16 μg/plate, +S9) was 27.00 ± 2.00. For the same molecule, the “number of revertant colonies per plate” value ([5]; TA1535, 16 μg/plate, −S9) was 23.33 ± 1.67, the “number of revertant colonies per plate” value ([5]; TA1535, 80 μg/plate, +S9) was 25.00 ± 4.00 and the “number of revertant colonies per plate” value ([5]; TA1535, 80 μg/plate, −S9) was 23.33 ± 2.67. For the same molecule, the “number of revertant colonies per plate” value ([5]; TA1535, 400 μg/plate, +S9) was 26.00 ± 3.00, the “number of revertant colonies per plate” value ([5]; TA1535, 400 μg/plate, −S9) was 23.33 ± 2.67 and the “number of revertant colonies per plate” value ([5]; TA1535, 2000 μg/plate, +S9) was 19.33 ± 3.67. The “number of revertant colonies per plate” value ([5]; TA1535, 2000 μg/plate, −S9) was 17.67 ± 2.33, the “toxicity to the test strains, preliminary experiment” value ([6]; 2000 μg/plate) was “not toxic” and the “toxicity to the test strains, preliminary experiment” value ([6]; 5000 μg/plate) was “inhibited the test strains”. For the same molecule, the “number of revertant colonies compared with the vehicle control” value ([6]; 3.2-2000 μg/plate, −S9 and +S9, all strains) was “no significantly different”.
In the case of `C=C[C@]1(C)C[C@@H](OC(=O)CSCCN(CC)CC)[C@]2(C)[C@H](C)CC[C@]3(CCC(=O)[C@H]32)[C@@H](C)[C@@H]1O` [tiamulin, Tiamulin fumarate, reference compound], the IC50 (CYP3A4) is listed as 1600 nM.

Source: PMC10502144, “Anti-methicillin-resistant Staphylococcus aureus activity and safety evaluation of 14-O-[(5-ethoxycarbonyl-4,6-dimethylpyrimidine-2-yl) thioacetyl] mutilin (EDT)” (Scientific Reports, 2023)
